# Reference: patent publication US5143906A, “Kedarcidin antitumor chromophore and pharmaceutical composition containing same” (Bristol-Myers Squibb Company, priority 1991, dated 1992)
# “Also recorded” adds a separate entry of the source.
# How the values were obtained:
# [1] = system: HCT116/VP35 drug resistant cell line; experiment: In vitro cytotoxicity assay (XTT), HCT116/VP35; type: cell-based, human
# Procedure: (§1) The A2780/DDP cell line is reported to be resistant through enhanced DNA repair mechanisms and elevated GSH/GST levels. Cells were cultured in McCoy's media and 10% fetal bovine serum. When in log phase growth, 4×10^3 cells/well were plated into 96 well microtiter plates and incubated at 37° C. in […] /5% CO2 for 24 hours to allow cell attachment. Compounds were added to the top row of wells, serially diluted (4 fold dilutions) and incubated for an additional 72 hours. The number of viable cells in each well was then quantitated as previously described^2 by adding 0.05 mg/ml final concentration tetrazolium stain (XTT) in the presence of 0.005 mM final concentration phenazine methosulfate. After incubation at room temperature for 3 hours to allow color development, optical density values were measured using a Dynatech MR600 plate reader at […]. IC50 values (drug concentration inhibiting cell growth by 50%) were calculated using linear regression analysis of the optical density readings. Triplicate determinations on separate 96 well plates were done for each drug on each cell line tested.
# [2] = system: several human tumor cell lines; experiment: In vitro cytotoxicity assay, several human tumor cell lines (summary); type: cell-based
# From the text: as §1, with “The cell lines used to evaluate in vitro cytotoxic potency include the human colon adenocarcinoma HCT116 drug sensitive line, HCT 116/VP35 and HCT116/VM46 daughter drug resistant cell lines that have low Topoisomerase II and elevated P-170 glycoprotein levels^1; respectively, and the human ovarian carcinoma A2780 drug sensitive and the A2780/DDP daughter drug resistant cell line. The A2780/DDP” for “The A2780/DDP”, “density readings. […]” for “density readings. Triplicate determinations on separate 96 well plates were done for each drug on each cell line tested.”
# [3] = system: iv implanted P388 leukemia; experiment: Antitumor activity against iv implanted P388 leukemia; type: in vivo, murine (CDF1 mice)
# From the text: (§2) The P388 tumor was maintained in ascitic form in DBA/2 mice. Experimental tumor models used CDF^1 mice implanted via the intraperitoneal or intravenous route with 1×10^6 leukemia cells on day 0 and dosed with drugs according to the indicated route and schedule. Mice were weighed on day 0 and on day 5 or 6. Weight loss of 20% or greater was an indicator of drug toxicity. Each dose group consisted of 6 mice with 10 mice in the untreated control group. The dosing schedule was Q1DX1;1. Death checks were performed daily and the median life span of each group determined. […] Experiments were terminated on or about day 30.
# [4] = system: sc implanted B16 melanoma; experiment: Antitumor activity against sc implanted B16 melanoma; type: in vivo, murine (BDF1 mice); conditions: for % T/C / Av. wgt. change / Med. surv. time / No. of mice alive on d 5: iv
# Procedure: The B-16 murine melanoma was maintained as a subcutaneous growing tumor in C57BL/6 mice. Experimental tumor models used BDF^1 mice implanted with a 25 mg tumor fragment implanted subcutaneously via trochar on day 0. Kedarcidin chromophore was administered iv on a Q1DX1;1 schedule. Mice were weighed on day 0 and on day 9.
# [5] = system: HCT116/VM46 drug resistant cell line; experiment: In vitro cytotoxicity assay (XTT), HCT116/VM46; type: cell-based, human
# Procedure: as §1
# Stability in solution = type: physicochemical
# [6] = system: A2780/DDP drug resistant cell line; experiment: In vitro cytotoxicity assay (XTT), A2780/DDP; type: cell-based, human
# Procedure: as §1
# P388 murine leukemia = P388 murine leukemia models, ip and iv implanted (summary); type: in vivo, murine (CDF1 mice)
# From the text: as §2
# [7] = system: human colon adenocarcinoma HCT116 drug sensitive line; experiment: In vitro cytotoxicity assay (XTT), HCT116; type: cell-based
# Procedure: as §1
structure (smiles),measurement,setting,value
COc1c(OC(C)C)cc2cc(O)c(C(=O)N[C@@H]3CC(=O)OC[C@@H](O[C@H]4C[C@H](O)[C@H](N(C)C)[C@H](C)O4)/C4=C/C#C[C@@H]5O[C@]56C(=C[C@H](Oc5ccc3nc5Cl)[C@@H]6O[C@H]3C[C@@](C)(O)[C@@H](O)[C@H](C)O3)C#C4)cc2c1OC [Kedarcidin chromophore],cross-resistance with VP-16,[1]; HCT116/VP35,not cross-resistant
same,IC50,"[1]; HCT116/VP35, 72 h, VP-16 values: mean of triplicate determinations from last 6 experiments",0.3 ng/mL
same,ability to inhibit cell growth,[2]; compared to VP-16,extremely potent
same,antitumor in vitro activity,[2]; several human tumor cell lines,potent antitumor in vitro activity
same,% T/C,"[3]; Exp. 8305, 0.125 mg/kg/dose",186%
same,Av. wgt. change,"[3]; Exp. 8305, 0.125 mg/kg/dose",-0.3 g
same,Med. surv. time,"[3]; Exp. 8305, 0.125 mg/kg/dose",13.0
same,No. of mice alive on d 5,"[3]; Exp. 8305, 0.125 mg/kg/dose",6/6
same,% T/C,"[3]; Exp. 8305, 0.25 mg/kg/dose",214%
same,Av. wgt. change,"[3]; Exp. 8305, 0.25 mg/kg/dose",-0.8 g
same,Med. surv. time,"[3]; Exp. 8305, 0.25 mg/kg/dose",15.0
same,No. of mice alive on d 5,"[3]; Exp. 8305, 0.25 mg/kg/dose",6/6
same,% T/C,"[3]; Exp. 8305, 0.5 mg/kg/dose",107%
same,Av. wgt. change,"[3]; Exp. 8305, 0.5 mg/kg/dose",-2.9 g
same,Med. surv. time,"[3]; Exp. 8305, 0.5 mg/kg/dose",7.5
same,No. of mice alive on d 5,"[3]; Exp. 8305, 0.5 mg/kg/dose",6/6
same,% T/C,"[3]; Exp. 8305, 1 mg/kg/dose",TOX
same,Med. surv. time,"[3]; Exp. 8305, 1 mg/kg/dose",TOX
same,No. of mice alive on d 5,"[3]; Exp. 8305, 1 mg/kg/dose",0/6
same,% T/C,"[3]; Exp. 8305, 2 mg/kg/dose",TOX
same,Med. surv. time,"[3]; Exp. 8305, 2 mg/kg/dose",TOX
same,No. of mice alive on d 5,"[3]; Exp. 8305, 2 mg/kg/dose",0/6
same,% T/C,"[3]; Exp. 8305, 4 mg/kg/dose",TOX
same,Med. surv. time,"[3]; Exp. 8305, 4 mg/kg/dose",TOX
same,No. of mice alive on d 5,"[3]; Exp. 8305, 4 mg/kg/dose",0/6
same,optimal dose,"[3]; Exp. 8305, iv one day after tumor implant",0.25 mg/kg/inj
same,% T/C,"[3]; Exp. 8328, 0.125 mg/kg/dose",186%
same,Av. wgt. change,"[3]; Exp. 8328, 0.125 mg/kg/dose",-2.5 g
same,Med. surv. time,"[3]; Exp. 8328, 0.125 mg/kg/dose",13.0
same,No. of mice alive on d 5,"[3]; Exp. 8328, 0.125 mg/kg/dose",6/6
same,% T/C,"[3]; Exp. 8328, 0.25 mg/kg/dose",100%
same,Av. wgt. change,"[3]; Exp. 8328, 0.25 mg/kg/dose",-2.4 g
same,Med. surv. time,"[3]; Exp. 8328, 0.25 mg/kg/dose",7.0
same,No. of mice alive on d 5,"[3]; Exp. 8328, 0.25 mg/kg/dose",6/6
same,% T/C,"[3]; Exp. 8328, 0.5 mg/kg/dose",TOX
same,Med. surv. time,"[3]; Exp. 8328, 0.5 mg/kg/dose",TOX
same,No. of mice alive on d 5,"[3]; Exp. 8328, 0.5 mg/kg/dose",0/6
same,% T/C,"[3]; Exp. 8328, 1.0 mg/kg/dose",TOX
same,Med. surv. time,"[3]; Exp. 8328, 1.0 mg/kg/dose",TOX
same,No. of mice alive on d 5,"[3]; Exp. 8328, 1.0 mg/kg/dose",0/6
same,optimal dose,"[3]; Exp. 8328, iv, Q1DX1;1",0.125 mg/kg/inj
same,activity by the lifespan criterion,[4]; Exp. 796,active by the lifespan criterion
same,activity by the tumor growth delay criterion,[4]; Exp. 796,Neither kedarcidin chromophore or kedarcidin were active
same,optimum dose,"[4]; Exp. 796, iv one day after tumor implant",0.062 mg/kg/inj
same,% T/C,"[4]; Exp. 796, 0.062 mg/kg/dose",164%
same,Av. wgt. change,"[4]; Exp. 796, 0.062 mg/kg/dose",1.1 g
same,Med. surv. time,"[4]; Exp. 796, 0.062 mg/kg/dose",41.0
same,No. of mice alive on d 5,"[4]; Exp. 796, 0.062 mg/kg/dose",8/8
same,% T/C,"[4]; Exp. 796, 0.125 mg/kg/dose",126%
same,Av. wgt. change,"[4]; Exp. 796, 0.125 mg/kg/dose",1.1 g
same,Med. surv. time,"[4]; Exp. 796, 0.125 mg/kg/dose",31.5
same,No. of mice alive on d 5,"[4]; Exp. 796, 0.125 mg/kg/dose",8/8
same,% T/C,"[4]; Exp. 796, 0.25 mg/kg/dose",TOX
same,Av. wgt. change,"[4]; Exp. 796, 0.25 mg/kg/dose",-1.0 g
same,Med. surv. time,"[4]; Exp. 796, 0.25 mg/kg/dose",TOX
same,No. of mice alive on d 5,"[4]; Exp. 796, 0.25 mg/kg/dose",2/8
same,% T/C,"[4]; Exp. 796, 0.5 mg/kg/dose",TOX
same,Med. surv. time,"[4]; Exp. 796, 0.5 mg/kg/dose",TOX
same,No. of mice alive on d 5,"[4]; Exp. 796, 0.5 mg/kg/dose",0/8
same,activity and potency compared to kedarcidin,"[4]; conclusion, compared directly","as active as, and slightly more potent than, kedarcidin"
same,antitumor activity by lifespan criterion,"[4]; sc implanted B16, conclusion",significant antitumor activity; also recorded: in vivo antitumor activity
same,cross-resistance with VP-16,[5]; HCT116/VM46,not cross-resistant
same,IC50,"[5]; HCT116/VM46, 72 h, VP-16 values: mean of triplicate determinations from last 6 experiments",0.3 ng/mL
same,Stability,Stability in solution,Very unstable
same,Decomposition in solution,"Stability in solution; in solution with benzene, methanol, chloroform and DMSO",Decomposes within hours
same,fold less potent on the resistant cell line compared to the sensitive cell line,"[6]; A2780/DDP vs A2780, 4320 min",about 6.6 fold
same,IC50,"[6]; A2780/DDP, 72 h, VP-16 values: mean of triplicate determinations from last 6 experiments",1.3 ng/mL
same,efficacy and potency compared to kedarcidin,P388 murine leukemia; P388 model,"as efficacious as, and slightly more potent than, kedarcidin; also recorded: as active as, and slightly more potent than, kedarcidin"
same,antitumor activity in P388 models,"P388 murine leukemia; ip, ip or iv, iv model",both potent and efficacious; also recorded: significant antitumor activity; also recorded: in vivo antitumor activity
same,IC50,"[7]; HCT116, 72 h, VP-16 values: mean of triplicate determinations from last 6 experiments",0.4 ng/mL
same,fold more potent than VP-16,[7]; VP-16 sensitive cell line (HCT116),1725 fold
